The values below come from paper PMC10177727 (Clinical Drug Investigation, 2023).

Read-outs that look alike come from different tables or passages of the source.

Series [1] concerns CYP3A.
The test system of series [2] is CYP3A. Particulars: with itraconazole, prednisolone 20 mg administered on Day 5; cited from earlier work.
The subject of series [3] is CYP3A. In words: clinical. Particulars: human, in vivo, po, 10 mg; for half-life: t1/2,z GLS mean.
For series [4], the system named is CYP3A. As to conditions: midazolam with ensitrelvir 375/125 mg / midazolam alone, Day 5/Day -2.
Series [5] can be described thus: Safety and tolerability: treatment-emergent adverse events. It is filed as in vivo, healthy Japanese adult participants. As to conditions: midazolam cohort (ensitrelvir 375/125 mg + midazolam 2 mg), N = 14.
Series [6] concerns CYP3A. The series can be described thus: clinical. Particulars: human, in vivo, po, 2 mg, midazolam 2 mg alone, Day -2.
For series [7], the system named is CYP3A. As to conditions: with ensitrelvir 750/250 mg; cited from earlier work.
The mark [8] stands for this setting: 5th day after the last ensitrelvir dose / prednisolone alone, Day 9/Day -2.
Where [9] appears, read: 10th day after the last ensitrelvir dose / prednisolone alone, Day 14/Day -2.
The mark [10] stands for this setting: prednisolone with ensitrelvir 750/250 mg / prednisolone alone, Day 5/Day -2.

For the molecule `C[C@]12C=CC(=O)C=C1CC[C@@H]1[C@@H]2[C@@H](O)C[C@@]2(C)[C@H]1CC[C@]2(O)C(=O)CO` [Prednisolone], in the series on CYP3A [1] (setting [8]), the “AUC0–inf GLS mean ratio (90% CI)” value is listed as 1.1243 (1.0973–1.1521), the “AUC0–last GLS mean ratio (90% CI)” value is 1.1142 (1.0842–1.1451), the “Cmax GLS mean ratio (90% CI)” value is recorded as 1.0953 (0.9865–1.2160) and the “MRT GLS mean ratio (90% CI)” value is listed as 1.0569 (1.0095–1.1065). Further, in the series with CYP3A [1] (setting [8]), the “t1/2,z GLS mean ratio (90% CI)” value was 1.0660 (1.0349–1.0980) and the “λz GLS mean ratio (90% CI)” value is recorded as 0.9381 (0.9107–0.9663). In the series with CYP3A [1] (setting [9]), the “AUC0–inf GLS mean ratio (90% CI)” value is 1.0396 (1.0146–1.0653), the “AUC0–last GLS mean ratio (90% CI)” value is reported as 1.0267 (0.9990–1.0552), the “Cmax GLS mean ratio (90% CI)” value is given as 0.9927 (0.8941–1.1021) and the “MRT GLS mean ratio (90% CI)” value is 1.0419 (0.9952–1.0908). Also, in the series on CYP3A [1] (setting [9]), the “t1/2,z GLS mean ratio (90% CI)” value was 1.0474 (1.0169–1.0789) and the “λz GLS mean ratio (90% CI)” value is 0.9547 (0.9269–0.9834). Further, in the series on CYP3A [1] (setting [10]), the “AUC0–inf GLS mean ratio (90% CI)” value was 1.2476 (1.2176–1.2784), the “AUC0–last GLS mean ratio (90% CI)” value is 1.2408 (1.2073–1.2752), the “Cmax GLS mean ratio (90% CI)” value is 1.1141 (1.0035–1.2369) and the “MRT GLS mean ratio (90% CI)” value is listed as 1.1065 (1.0569–1.1584). Moreover, in the series with CYP3A [1] (setting [10]), the “t1/2,z GLS mean ratio (90% CI)” value is listed as 1.1160 (1.0835–1.1496) and the “λz GLS mean ratio (90% CI)” value was 0.8960 (0.8699–0.9230). For the same molecule, in the series on CYP3A [2], the “AUC of prednisolone increase” value was 1.24 fold. In addition, the AUC(0-inf) in the series with CYP3A [3] (AUC0–inf GLS mean, prednisolone 10 mg alone, Day -2) turned out to be 1090 ng·h/mL. In addition, the AUC(0-t) in the series on CYP3A [3] (AUC0–last GLS mean, prednisolone 10 mg alone, Day -2) came to 1040 ng·h/mL. In addition, the Cmax in the series on CYP3A [3] (Cmax GLS mean, prednisolone 10 mg alone, Day -2) amounted to 243 ng/mL. The same molecule gave an MRT with CYP3A [3] (MRT GLS mean, prednisolone 10 mg alone, Day -2) of 4.26 h. For the same molecule, the half-life in the series with CYP3A [3] (prednisolone 10 mg alone, Day -2) was 2.55 h. The half-life in the series with CYP3A [3] (prednisolone 10 mg, 5th day after the last ensitrelvir dose, Day 9) was 2.71 h. The half-life in the series on CYP3A [3] (prednisolone 10 mg, 10th day after the last ensitrelvir dose, Day 14) is 2.67 h. The molecule also had a k el in the series with CYP3A [3] (λz GLS mean, prednisolone 10 mg alone, Day -2) of 7.56e-05 s⁻¹.

For the molecule `Cc1ncc2n1-c1ccc(Cl)cc1C(c1ccccc1F)=NC2` [Midazolam], in the series on CYP3A [4], the “AUC0–inf GLS mean ratio (90% CI)” value was 6.7685 (6.1572–7.4404), the “AUC0–last GLS mean ratio (90% CI)” value is 6.9011 (6.2722–7.5931), the “Cmax GLS mean ratio (90% CI)” value is recorded as 2.8012 (2.3798–3.2971) and the “MRT GLS mean ratio (90% CI)” value was 2.6506 (2.4623–2.8532). Further, in the series on CYP3A [4], the “t1/2,z GLS mean ratio (90% CI)” value was 2.2750 (2.0373–2.5406) and the “λz GLS mean ratio (90% CI)” value is 0.4396 (0.3936–0.4909). In addition, in series [5], the “Diarrhea, events related to midazolam” value amounted to 1 and the “Somnolence, events related to midazolam” value is 8. Also, the AUC(0-inf) in the series on CYP3A [6] (AUC0–inf GLS mean) stood at 24.1 ng·h/mL. In the series with CYP3A [6] (AUC0–last GLS mean), this molecule showed an AUC(0-t) of 23.4 ng·h/mL. The molecule also displayed a Cmax in the series on CYP3A [6] (Cmax GLS mean) of 12.6 ng/mL. This molecule yielded a mean residence time (MRT) with CYP3A [6] (MRT GLS mean) of 3.18 h. Moreover, in the series on CYP3A [6] (t1/2,z GLS mean), the half-life is 3.24 h. Moreover, the k el with CYP3A [6] (λz GLS mean) is 5.94e-05 s⁻¹. Besides, in the series on CYP3A [7], the “increase in the plasma exposure of midazolam” value is 8.80 fold and the “increased ratio of Cmax of midazolam” value is given as 2.78 fold.

By AUC(0-inf) is commonly meant the area under the concentration-time curve extrapolated to infinity. Read a high AUC(0-inf) as more exposure. As usually defined, the AUC(0-t) is exposure summed from dosing to a finite time, without extrapolation to infinity. A lower AUC(0-t) goes with low exposure. What is called Cmax is the maximum level reached in the sampled fluid or tissue. A word on the MRT: it is the average time that molecules of a dose stay in the body. The term half-life denotes the time in which the quantity being followed falls by half.
